Measurements from patent US7410980B2, “Crystals of taxane derivative and process for their production” (Daiichi Pharmaceutical Co., Ltd., priority 2001, dated 2008).

Assay: moisture absorption behavior (microbalance, automatic moisture adsorption apparatus)
Type: physicochemical
Experimental: Moisture absorption behaviors of the crystals of the present invention (β crystals) and an amorphous substance were measured under relative humidity of from 30 to 90%. Each sample of about 20 mg was used and the relative humidity was changed from 30% with 10% pitch by using a microbalance (automatic moisture adsorption apparatus). The measurement temperature was 25° C. An amount of the change was determined when the sample gave the change of 0.03% or less for 30 minutes (maximum retention time: 180 minutes).

| Structure (SMILES) | additional moisture absorbed as compared to the crystals of the present invention (β crystals) (under high humidity, relative humidity 30 to 90%, 25° C., about 20 mg sample) | hygroscopicity (compared with amorphous substance, as shown in the examples) |
| --- | --- | --- |
| CC(=O)O[C@@]12CO[C@@H]1CC[C@@]1(C)[C@@H]3O[C@H](CN(C)C)O[C@@H]3C3=C(C)[C@@H](OC(=O)[C@H](O)[C@@H](NC(=O)OC(C)(C)C)c4ncccc4F)C[C@@](O)([C@@H](OC(=O)c4ccccc4)[C@@H]12)C3(C)C [amorphous substance, (1S,2S,3R,4S,5R,8R,9S,10R,13S)-4-acetoxy-2-benzoyloxy-9,10-[(1S)-2-(dimethylamino)ethylidenedioxy]-5,20-epoxy-1-hydroxytax-11-en-13-yl (2R,3S)-3-(tert-butoxycarbonylamino)-3-(3-fluoro-2-pyridyl)-2-hydroxypropionate] | about 1% | – |
| CC(=O)O[C@@]12CO[C@@H]1CC[C@@]1(C)[C@@H]3O[C@H](CN(C)C)O[C@@H]3C3=C(C)[C@@H](OC(=O)[C@H](O)[C@@H](NC(=O)OC(C)(C)C)c4ncccc4F)C[C@@](O)([C@@H](OC(=O)c4ccccc4)[C@@H]12)C3(C)C [β crystals, (1S,2S,3R,4S,5R,8R,9S,10R,13S)-4-acetoxy-2-benzoyloxy-9,10-[(1S)-2-(dimethylamino)ethylidenedioxy]-5,20-epoxy-1-hydroxytax-11-en-13-yl (2R,3S)-3-(tert-butoxycarbonylamino)-3-(3-fluoro-2-pyridyl)-2-hydroxypropionate] | – | lower than that of an amorphous substance |
